Patent US12102639B2, “Imipridones for gliomas” (Oncoceutics, Inc., priority 2017, dated 2024)
Entries after “also recorded” stand apart in the source; their conditions may differ.

Legend:
human cancer cells = experiment: Viability of human cancer cells at 72 hours post-treatment; type: cell-based; conditions: relative to the potency of ONC201; viability at 72 hours post-treatment
Description: A number of imipridones were prepared based on the syntheses above. Viability of human cancer cells was measured at 72 hours post-treatment with each compound.

HCT116 cells = experiment: Anticancer efficacy in HCT116 cells; type: cell-based, human; conditions: HCT116, nanomolar concentrations (FIG. 8)
[1] = system: human colon cancer xenograft; experiment: Human colon cancer xenograft-bearing mice; type: in vivo; conditions: xenograft mouse models of colorectal and breast cancer (FIG. 10)
[2] = system: NCI60 cancer cell line panel; experiment: NCI60 cancer cell line panel; type: cell-based; conditions: NCI60 panel (FIG. 4)
leukemia cell lines = experiment: Leukemia cell lines; type: cell-based; conditions: 55 leukemia cell lines (FIG. 11, 12)
[3] = system: normal cells (MRC5 lung fibroblasts, Hs27a bone marrow cells); experiment: In vitro toxicity to normal cells; type: cell-based
[4] = system: integrated stress response, Akt/ERK phosphorylation; experiment: Integrated stress response and Akt/ERK phosphorylation; type: cell-based; conditions: earlier time points compared to ONC201 (FIG. 9)
MV411 AML cells = experiment: MV411 AML xenograft model
MV411 (AML) = experiment: Cell viability of MV411 AML cells
[5] = system: acute myeloid leukemia (AML) cell lines; experiment: AML cell lines, in vitro efficacy
MOLM14 (AML) = experiment: Cell viability of MOLM14 AML cells; conditions: Homo sapiens, MOLM-14, 72 h

## O=C1C2=C(CCN(Cc3ccccc3)C2)N2CCN=C2N1Cc1ccc(C(F)(F)F)cc1 [ONC212]
Human cancer cells
  Relative Potency: A (A Indicates a potency increase of >2-fold of ONC201)
HCT116 cells
  cell death: induced cell death
[1]
  anti-cancer efficacy: oral and IP anti-cancer efficacy
[2]
  anti-cancer efficacy: demonstrated anti-cancer efficacy across various tumor types
Leukemia cell lines
  anti-cancer efficacy: more responsive to ONC212 than ONC201; also recorded: nanomolar range in 55 leukemia cell lines
[3]
  in vitro toxicity to normal cells: but not normal cells (MRC5); also recorded: non-toxic to normal cells at efficacious concentrations
[4]
  integrated stress response and Akt/ERK phosphorylation: induces the integrated stress response and inhibits Akt/ERK phosphorylation at nanomolar concentrations
MV411 AML cells; 50 mg/kg, oral weekly administration (ONC201 at similar doses)
  leukemia xenograft tumor growth: significantly reduced leukemia xenograft tumor growth
MV411 AML cells; biweekly dosing with 25 mg/kg
  leukemia xenograft tumor growth: not efficacious
MV411 AML cells; weekly/biweekly dosing with 5 mg/kg
  leukemia xenograft tumor growth: not efficacious
MV411 (AML); Homo sapiens, MV4-11, 72 h
  IC50: 10 nM
MV411 (AML); MV411, 5 nM-5 μM, 24 h (FIG. 14A)
  efficacy in AML cells resistant to cytarabine: efficacious
[5]; 250 nM, MOLM14 and MV411 AML cells, viability at 96 h
  cell viability after 8 hr exposure: robust reduction in cell viability
[5]; AML cell lines, Table 4
  potency compared to ONC201: up to 400 fold
MOLM14 (AML)
  IC50: 10 nM
